Data: patent US20030195246A1, “Seamless soft capsule preparations containing dihydrobenzofuran derivatives” (priority 2000, published 2003)

Experiment: BO-653 stability test in different fats and oils (accelerated test, HPLC residue rate)
Format: physicochemical
Conditions: 80° C. for 17 hours
Procedure: A test was conducted on the effect of oxygen on decomposition of BO-653 (4,6-ditert-butyl-2,2-di-n-pentyl-5-hydroxy-2,3-dihydrobenzofuran) and its stability in various fats and oils. There were prepared samples consisting of 70 mg solutions of BO-653 in different fats and oils (soybean oil (product of Wako Pure Chemicals Industries, Ltd.), olive oil (product of Wako Pure Chemicals Industries, Ltd.), MCT (ODO-C: product of The Nisshin oil Mills, Ltd.), tricaprilin (product of Wako Pure Chemicals Industries, Ltd.) and linoleic acid (product of NOF Corp.)), each in a proportion of 50 wt % in a 5 cc glass vial, as well as a sample of 35 mg BO-653 in a 5 cc glass vial. An accelerated test was conducted at 80° C. for 17 hours, in a case with sealing of the head space of each sample vial after argon substitution and a case with sealing without argon substitution, and the residue rate was determined by HPLC measurement of the BO-653 content after the test.

stability of BO-653 (no argon substitution (presence of oxygen), 50 wt % in soybean oil, compared with other fats and oils): highest stability | residue rate (with argon substitution (absence of oxygen), any of the media, including BO-653 alone): virtually no reduction in residue rate
Compound: CCCCCC1(CCCCC)Cc2c(cc(C(C)(C)C)c(O)c2C(C)(C)C)O1 [BO-653, 4,6-ditert-butyl-2,2-di-n-pentyl-5-hydroxy-2,3-dihydrobenzofuran]
residue rate (no argon substitution (presence of oxygen), all of the samples): lower with no argon substitution than with argon substitution
